Here are results for 1 compound from US20090093476A1, “PYRROLO[1,2-A]QUINOXALINE DERIVATIVES AS ADENOSINE A3 RECEPTOR MODULATORS AND USES THEREOF” (FAUST PHARMACEUTICALS, priority 2005, published 2009).

Each structure is given as a SMILES string. A value given as a limit tells only on which side of the number the result lay.

For orientation: IC50 means the concentration needed to halve the response being measured.

Format in all cases: cell-based
One assay deals with PC-3. The experiment in a line: Cytotoxic activity, MTS assay, PC-3. The following applies: Homo sapiens, PC-3, 96 hours. The protocol:
(§1) This study aims to determine the cytotoxic activity of a compound of the invention against a panel of ten human cancer cell lines.
(§2) Paclitaxel (Taxol®, ref. T1912, Sigma) is used as positive control.
(§3) Human tumor cells were plated at 5,000 to 10,000 cells per well, with 24 h incubation time before treatment. Tumor cell lines were incubated for 96 hours with 10 concentrations, in ¼ dilution steps, of compound of the invention (from 3.8×10^−10 to 1.0×10^−4 M) and Paclitaxel (from 3.8×10^−13 to 1.0×10^−7 M). Experiments were repeated three times, each concentration being issued from quadruplicate. Control cells were treated with corresponding vehicle alone. At the end of the treatments, the cytotoxic activity was evaluated by a MTS assay (Baltrop J A et al, Bioorg. Med. Chem. Lett. 1991, 611-4).

Another assay concerns PANC-1. In words: Cytotoxic activity, MTS assay, PANC-1. As to conditions: Homo sapiens, PANC-1, 96 hours. The protocol: as §1, §2, §3
A general note: Formazan colour is commonly taken as a measure of viable cells.

Another assay concerns A375. In words: Cytotoxic activity, MTS assay, A375. The following applies: Homo sapiens, A-375, A375, 96 hours. The protocol:
as §1, §2, §3

In the next assay the test system is U-937. The experiment in a line: Cytotoxic activity, MTS assay, U-937. The following applies: Homo sapiens, U-937, 96 hours. The protocol: as §1, §2, §3
Another assay concerns K-562. In words: Cytotoxic activity, MTS assay, K-562. As to conditions: Homo sapiens, K562, K-562, 96 hours. The protocol: as §1, §2, §3
A further assay concerns U-87 MG. In words: Cytotoxic activity, MTS assay, U-87 MG. The following applies: Homo sapiens, 96 hours. The protocol:
as §1, §2, §3

The subject of a further assay is HT-29. The experiment in a line: Cytotoxic activity, MTS assay, HT-29. The following applies: Homo sapiens, HT-29, 96 hours. On the procedure: as §1, §2, §3
The next assay has as its system HCT 116. In words: Cytotoxic activity, MTS assay, HCT 116. The following applies: Homo sapiens, HCT 116, 96 hours. The protocol:
as §1, §2, §3

For the next assay, the system named is HL-60. The experiment in a line: Cytotoxic activity, MTS assay, HL-60. As to conditions: Homo sapiens, HL-60, 96 hours. On the procedure:
as §1, §2, §3

Another assay relates to A2780. In words: Cytotoxic activity, MTS assay, A2780. As to conditions: Homo sapiens, A2780, 96 hours. The protocol: as §1, §2, §3

`CC(=O)O[C@H]1C(=O)[C@@]2(C)[C@H]([C@H](OC(=O)c3ccccc3)[C@]3(O)C[C@H](OC(=O)[C@H](O)[C@@H](NC(=O)c4ccccc4)c4ccccc4)C(C)=C1C3(C)C)[C@]1(OC(C)=O)CO[C@@H]1C[C@@H]2O` [Paclitaxel]: the 50% inhibitory concentration (IC50) with PC-3 is 8.8 nM; with PANC-1 it was above 100 nM; with A375, 6.52 nM; in the assay with U-937, 5.29 nM; with K-562, 7.6 nM; in the assay with U-87 MG it was above 100 nM. Further, the half-inhibitory concentration (IC50) with HT-29 amounted to 8.29 nM; in the assay with HCT 116, 5.57 nM; in the assay on HL-60 it was 6.65 nM; in the assay with A2780, 77 nM.
